The source of these data is PMC12298007 (Pharmaceuticals, 2025).

Non-standard residues stand in square brackets, D forms with d. Residues, ends and D or L forms follow the SMILES beside them. *: point of attachment. X1 = O=C(O)CC[C@H](NC(=O)N[C@@H](CCCCNC(=O)CCCCCCC(=O)*)C(=O)O)C(=O)O; d2Nal = N[C@H](Cc1ccc2ccccc2c1)C(=O)O; Mercaptoacetyl = O=C(CS)*

For the assay, the target named is T1, human PSMA (CHO-K1-PSMA cells) (Homo sapiens, UniProt Q04609).
T1 construct: host or cells: CHO-K1 (lentiviral transduction, clone 5)
Description: Saturation binding assay on CHO-K1-PSMA cells. Particulars: 2 h at 4 °C. The procedure:
Saturation binding experiments were carried out with increasing concentrations of the radiolabeled peptides for 2 h at 4 °C. […] Cells were processed as previously published. […] The next day, the culture medium was replaced with 0.8 mL Ham's F 12 Nutrient Mix (1% FBS), and the cells were kept in the fridge for 30 min before the addition of the radioligand. […] The saturation assay was performed at 4 °C to avoid internalization. […] Total incubation volume per well: 1 mL. […] The obtained fractions and standard aliquots were measured in a γ-counter. […] Human GRPR reverse: [NT] Human β-ACTIN forward: [NT] Human β-ACTIN reverse: [NT] 3.3.4 Western blot Total protein was isolated from cell lines as previously described. PierceTM Coomassie Plus (Bradford) Protein Assay Kit (Thermo Scientific, Cat.Nr. 23236) was used for measuring protein concentrations and 30 μg (for PSMA) or 40 μg (for GRPR) protein per sample was used for SDS-PAGE and Western blot as previously described. PSMA (CST, D4S1F) Rabbit, GRPR (Alomone labs, Cat.Nr. ABR-002) Rabbit, α-Tubulin (Proteintech, Cat.Nr. 66031-1-Ig) Mouse and β-Actin (Proteintech, Cat.Nr. 66009-1-Ig) Mouse antibodies were utilized for detection of protein expression. Secondary antibodies used, included goat anti -rabbit IgG HRP conjugate (JD111036047) and rabbit anti -mouse IgG HRP conjugate (JD315035008). […] (Figure 6B, Table 1, main manuscript). […] 21

T1 sequence (Q04609 whole entry): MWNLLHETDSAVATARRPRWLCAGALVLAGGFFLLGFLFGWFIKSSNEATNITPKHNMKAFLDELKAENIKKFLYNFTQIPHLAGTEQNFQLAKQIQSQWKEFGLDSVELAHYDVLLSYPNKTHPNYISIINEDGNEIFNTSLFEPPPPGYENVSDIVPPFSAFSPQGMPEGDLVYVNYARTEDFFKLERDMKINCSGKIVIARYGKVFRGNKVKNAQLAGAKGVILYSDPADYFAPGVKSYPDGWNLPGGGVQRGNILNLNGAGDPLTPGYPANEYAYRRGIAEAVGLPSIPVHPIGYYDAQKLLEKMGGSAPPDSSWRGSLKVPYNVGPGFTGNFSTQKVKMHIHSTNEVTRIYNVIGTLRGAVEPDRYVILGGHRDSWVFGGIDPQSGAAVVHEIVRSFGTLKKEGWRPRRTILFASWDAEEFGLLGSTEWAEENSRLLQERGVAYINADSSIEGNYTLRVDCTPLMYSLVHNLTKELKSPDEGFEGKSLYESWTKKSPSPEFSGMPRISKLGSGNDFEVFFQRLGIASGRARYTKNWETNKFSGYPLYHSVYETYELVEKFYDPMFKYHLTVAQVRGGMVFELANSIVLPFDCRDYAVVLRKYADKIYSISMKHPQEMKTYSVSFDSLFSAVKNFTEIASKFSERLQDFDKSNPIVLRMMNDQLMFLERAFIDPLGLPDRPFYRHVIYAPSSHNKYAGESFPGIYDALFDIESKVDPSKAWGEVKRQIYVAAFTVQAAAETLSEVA

`O=C(O)CC[C@H](NC(=O)N[C@@H](CCCCNC(=O)CCCCCCC(=O)NCCCC[C@@H](NC(=O)[C@@H](Cc1ccc2ccccc2c1)NC(=O)[C@@H](Cc1ccc(O)cc1)NC(=O)[C@@H](CO)NC(=O)[C@@H](CO)NC(=O)[C@@H](CO)NC(=O)CS)C(=O)O)C(=O)O)C(=O)O` [[^99mTc]Tc-PSMA-I&S, metal not drawn] (Mercaptoacetyl-[dS][dS][dS][dY][d2Nal][dK](X1)-OH) displayed a Kd of 3.84 ± 0.44 nM.
